In the NIST ThermoML archive (doi:10.1021/acs.jced.6b00362):

Key:
[1] = refractive index (other wavelength) (dimensionless); xn = mol fraction of the nth substance listed; details: Liquid, Wavelength=632.8 nm, ellipsometry
[2] = Crystal; DTA
[3] = refractive index (other wavelength) (dimensionless); details: 101 kPa, Liquid, Wavelength=632.8 nm, ellipsometry

[Cl-].[Cs+] [cesium chloride] + [Cl-].[Cl-].[Cl-].[Gd+3]
[1], 100 kPa, x2 = 0
Details | refractive index
1023 K | 1.439
1033 K | 1.438
1053 K | 1.434
1073 K | 1.43
1093 K | 1.426
1113 K | 1.423
1133 K | 1.419
1153 K | 1.415
1173 K | 1.411

[Cl-].[K+] [potassium chloride] + [Cl-].[Na+]
[1], 101 kPa, x2 = 0.5
Details | refractive index
953 K | 1.42
973 K | 1.417
993 K | 1.414
1013 K | 1.411
1033 K | 1.408
1053 K | 1.405
1073 K | 1.402
1093 K | 1.399
1103 K | 1.397
1113 K | 1.396
1123 K | 1.394
1133 K | 1.393
1153 K | 1.39
1173 K | 1.387

[Cl-].[Cl-].[Cl-].[Gd+3] [gadolinium(III) chloride] + [Cl-].[Na+]
refractive index, [1], 100 kPa
Details | 923 K | 973 K | 1023 K | 1073 K | 1123 K | 1173 K
x1 = 0.25 | 1.525 | 1.518 | 1.512 | 1.505 | 1.496 | 1.488
x1 = 0.5 | 1.586 | 1.58 | 1.57 | 1.562 | 1.55 | 1.544
x1 = 0.75 | 1.643 | 1.64 | 1.638 | 1.627 | 1.62 | 1.616
x1 = 1 | 1.7 | 1.685 | 1.68 | 1.675 | 1.664 | 1.662

[Cl][Sm]([Cl])[Cl] [samarium chloride]
Details | Normal melting temperature [°C]
[2] | 678

[3]
Details | refractive index
973 K | 1.712
1003 K | 1.705
1023 K | 1.701
1073 K | 1.691
1103 K | 1.684
1123 K | 1.68
1153 K | 1.674
1173 K | 1.672

[Cl-].[Cs+] [cesium chloride] + [Cl][Ce]([Cl])[Cl]
[1], 100 kPa, x2 = 0
Details | refractive index
1023 K | 1.439
1033 K | 1.438
1053 K | 1.434
1073 K | 1.43
1093 K | 1.426
1113 K | 1.423
1133 K | 1.419
1153 K | 1.415
1173 K | 1.411

[Cl-].[K+] [potassium chloride] + [Cl-].[Cl-].[Cl-].[Gd+3]
[1], 100 kPa, x2 = 0
Details | refractive index
1073 K | 1.393
1093 K | 1.39
1103 K | 1.388
1113 K | 1.386
1123 K | 1.385
1133 K | 1.383
1153 K | 1.38
1173 K | 1.377
1193 K | 1.374

[Cl-].[Cl-].[Cl-].[Gd+3] [gadolinium(III) chloride] + [Cl-].[K+]
refractive index, [1], 100 kPa
Details | 923 K | 973 K | 1023 K | 1073 K | 1123 K | 1173 K
x1 = 0.25 | – | – | 1.48 | 1.473 | 1.465 | 1.457
x1 = 0.5 | 1.557 | 1.551 | 1.546 | 1.54 | 1.534 | 1.529
x1 = 0.75 | 1.665 | 1.65 | 1.635 | 1.62 | 1.606 | 1.591
x1 = 1 | 1.7 | 1.685 | 1.68 | 1.675 | 1.664 | 1.662

[Cl][Ce]([Cl])[Cl] [cerium trichloride] + [Cl-].[K+]
refractive index, [1], 100 kPa
Details | 1073 K | 1103 K | 1123 K | 1133 K | 1153 K | 1173 K | 1193 K | 1203 K | 1213 K | 1233 K
x1 = 0.25 | 1.478 | 1.475 | 1.471 | – | 1.466 | 1.463 | 1.46 | – | – | –
x1 = 0.5 | 1.56 | 1.554 | 1.552 | – | 1.548 | 1.544 | – | 1.54 | – | –
x1 = 0.75 | 1.591 | 1.586 | 1.583 | – | 1.582 | 1.575 | – | – | – | –
x1 = 1 | – | 1.697 | – | 1.691 | 1.688 | 1.685 | 1.681 | – | 1.678 | 1.674

[Cl-].[K+] [potassium chloride]
[3]
Details | refractive index
1073 K | 1.393
1093 K | 1.39
1103 K | 1.388
1113 K | 1.386
1123 K | 1.385
1133 K | 1.383
1153 K | 1.38
1173 K | 1.377
1193 K | 1.374

[Cl][Ce]([Cl])[Cl] [cerium trichloride] + [Cl-].[Na+]
refractive index, [1], 101 kPa
Details | 1073 K | 1103 K | 1123 K | 1133 K | 1153 K | 1173 K | 1193 K | 1213 K | 1223 K | 1233 K
x1 = 0.25 | 1.515 | 1.51 | 1.507 | – | 1.502 | 1.5 | – | – | – | –
x1 = 0.5 | 1.595 | 1.59 | 1.587 | – | 1.582 | 1.58 | 1.578 | – | – | –
x1 = 0.75 | 1.656 | 1.651 | 1.647 | – | 1.642 | 1.639 | 1.636 | – | 1.631 | –
x1 = 1 | – | 1.697 | – | 1.691 | 1.688 | 1.685 | 1.681 | 1.678 | – | 1.674

[Cl-].[Cs+] [cesium chloride]
[3]
Details | refractive index
1023 K | 1.439
1033 K | 1.438
1053 K | 1.434
1073 K | 1.43
1093 K | 1.426
1113 K | 1.423
1133 K | 1.419
1153 K | 1.415
1173 K | 1.411

[Cl][Sm]([Cl])[Cl] [samarium chloride] + [Cl-].[Na+]
refractive index, [1], 100 kPa
Details | 973 K | 1003 K | 1023 K | 1073 K | 1103 K | 1123 K | 1153 K | 1173 K | 1193 K
x1 = 0.25 | 1.536 | 1.53 | 1.526 | 1.518 | 1.513 | 1.51 | – | 1.503 | 1.499
x1 = 0.5 | 1.613 | 1.609 | 1.602 | 1.583 | 1.582 | 1.58 | – | 1.569 | –
x1 = 0.75 | 1.672 | 1.665 | 1.662 | 1.653 | 1.648 | 1.64 | – | 1.629 | –
x1 = 1 | 1.712 | 1.705 | 1.701 | 1.691 | 1.684 | 1.68 | 1.674 | 1.672 | –
